Where two headings read alike, the source gives them in different places.
Legend:
caspase-3 = biological target: T1, caspase-3 (Homo sapiens, UniProt P42574); experiment: Caspase-3 activity assay (relief of zinc mediated inhibition); format: biochemical; conditions: for activation at 10 µM: 10 μM compound, 2.5 μM zinc
T1 construct: Active caspase-3 is a homodimer of heterodimers and is produced by proteolysis of procaspase-3; 6xHis (C); made in house; host or cells: Escherichia coli BL21(DE3), plasmid pHC332
T1 sequence (P42574 29-175 limits assumed): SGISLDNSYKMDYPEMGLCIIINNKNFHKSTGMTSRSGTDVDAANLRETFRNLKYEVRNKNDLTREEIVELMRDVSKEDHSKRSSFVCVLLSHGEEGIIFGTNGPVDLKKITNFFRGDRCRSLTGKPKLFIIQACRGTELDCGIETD
T1 sequence (P42574 176-277 limits assumed): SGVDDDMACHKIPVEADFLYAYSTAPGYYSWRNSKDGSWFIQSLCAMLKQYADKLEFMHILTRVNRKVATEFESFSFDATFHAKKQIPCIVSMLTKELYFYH
Method: Caspase-3 Activity Assays—Zinc-free stocks (2×) of caspase-3 (1 μM) were prepared in Caspase Activity Buffer. Compound stock solutions were made (2×) at various concentrations from 200 μM to 200 nM in Caspase Activity Buffer. […] The plates were incubated at room temperature for 30 minutes. […] The data for each compound concentration (4 wells) was averaged and the percent activity was plotted as a function of compound concentration. The data was analyzed using Table Curve 2D and fitted to a logistical dose-response curve. […] The percent activity at 10 μM was determined for each compound and reported as an average of the three replicate experiments with the corresponding SEM.

SK-MEL-5 cells = experiment: Live cell confocal imaging, colocalization with caspase-3/-7 activity; format: cell-based, human; conditions: 25 μM with FAM-DEVD-fmk
Method: Live Cell Imaging—SK-Mel-5 cells were grown on the bottom of no. 1 borosilicate growth chambers (Nunc) to a confluency of […]. Cells were then treated with DMSO, 25 μM FAM-DEVD-fmk in DMSO, 25 μM AF350-PAC-1 in DMSO, or both 25 μM FAM-DEVD-fmk and 25 μM AF350-PAC-1 concurrently for 1 hour at 37° C. and 5% CO2. Cells were then washed 5 times with RPMI 1640 growth media lacking phenol red. The cells were then allowed to further incubate at 37° C. for 2 hours before imaging. For cells stained with SYBR green for nuclear staining, a 1:100,000 dilution of SYBR green in media was added immediately prior to imaging. Cells were imaged on a Leica SP2 Multiphoton Confocal microscope.

[1] = system: U937 human lymphoma cells; experiment: Cell death assay in U937 cells (sulforhodamine B, 72 h); format: cell-based
Method: To each well was added 2 μL of 100× compound stock solutions in DMSO at varying concentrations so that the cells were treated with concentrations between 0 μM and 100 μM compound. Each concentration was tested in quintuplicate. In each plate 5 wells received 10 μM etoposide as a positive control and 5 wells received 2 μL of DMSO as a negative control. […] 1 Specifically, to each well of the plate was added 50 μL of an 80% (w/v) solution of TCA in H2O and the plates were allowed to rest at 4° C. overnight. The plates were then washed gently with a steam of H2O five times to remove the excess TCA and precipitated serum proteins. […] After staining, the wells were gently washed 5 times with 100 μL of 1% (v/v) acetic acid to remove the unbound dye. The plates were then allowed to air dry. […] The OD was then read at 510 nm in a Molecular Dynamics plate reader and the percent cell death calculated and normalized to the positive control (100% cell death) and the negative control (0% cell death). The percent cell death was averaged for each compound concentration and plotted as a function of compound concentration. The data were fit to a logistical dose response curve using Table curve 2D and the IC50 value was calculated. The experiment was repeated three times and the average of the calculated IC50 values was reported. The standard error of the mean (SEM) was determined and reported for the triplicate experiments.
U-937 cells grow in culture as a suspension.

[2] = EGTA fluorescence titration assay (zinc binding); conditions: read-out: Zinc Binding (KD) nM
[3] = Solubility in β-cyclodextran; format: physicochemical
[4] = Pharmacokinetics of S-PAC-1 i.p. in mice; format: in vivo, mouse; conditions: C57/BL6 mice, 125 mg/kg i.p.
Text: Mice were sacrificed and blood drawn at varying time points after administration. Blood samples were centrifuged and the serum was collected and analyzed by liquid chromatography to determine drug concentration.

[5] = Continuous-rate infusion pharmacokinetics in healthy research dogs; format: in vivo; conditions: hound, dog, plasma, continuous intravenous infusion, read-out: steady state plasma concentration
Method: Each dog received an initial loading dose via i.v. infusion over the course of 10 minutes followed by a maintenance dosage delivered by an infusion pump for an additional 24 hours.

[6] = Pharmacokinetics of S-PAC-1 in lymphoma bearing dogs; format: in vivo, dog; conditions: continuous infusion
Text: In addition, blood was collected from all pet dogs at each scheduled follow up visit to characterize hematologic and non-hematologic toxicity. Between administrations, patients were monitored by pet owners for gastrointestinal toxicity observational scores adhering the Veterinary Co-operative oncology group common terminology and criteria for adverse events (VCOG_CTCAE) (44).

[7] = biological target: T2, procaspase-3(D9A/D28A/D175A) mutant (Homo sapiens, UniProt P42574, D175A/D28A/D9A); experiment: Procaspase-3 D3A mutant activity in the presence of zinc; format: biochemical; conditions: 10 μM zinc, S-PAC-1 added, monitored at 15 minute intervals
T2 construct: 6xHis (C); made in house; host or cells: Escherichia coli BL21(DE3) (printed for procaspase-3 in general, not for the mutant by name)
T2 sequence (P42574 1-277 D9A/D28A/D175A): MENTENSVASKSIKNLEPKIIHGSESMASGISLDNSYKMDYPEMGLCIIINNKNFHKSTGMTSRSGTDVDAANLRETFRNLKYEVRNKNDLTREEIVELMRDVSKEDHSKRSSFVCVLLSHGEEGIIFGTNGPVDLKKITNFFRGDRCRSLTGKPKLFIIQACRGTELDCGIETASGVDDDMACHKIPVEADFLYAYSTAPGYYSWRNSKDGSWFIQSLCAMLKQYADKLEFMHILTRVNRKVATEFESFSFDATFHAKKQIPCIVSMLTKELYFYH
Text: Zinc ions are known to inhibit procaspase-3. […] The effect of a range of concentrations of zinc on caspase-3 and procaspase-3 enzymatic activity was examined. All buffers were first treated with Chelex® resin to remove any trace metal contaminants. […] To ensure that the activity of the proenzyme was being monitored, a proteolytically uncleavable mutant of procaspase-3 (in which the three aspartic acid cleavage site residues are mutated to alanine (D9A/D28A/D175A)) was used (24,32).

mice = conditions: cited from earlier work
[8] = Homo sapiens, U-937, 72 h, 72 h exposure, sulforhodamine B assay, read-out: U937 (IC50 μM)
[9] = Homo sapiens, U-937, 72 h, read-out: U937 (IC50 μM), 72 h exposure, sulforhodamine B assay

SMILES | activation at 10 µM (caspase-3) [%] | Kd [2] [nM] | IC50 [1, 8] [µM] | other results
C=CCc1cc(/C=N/NC(=O)CN2CCN(Cc3ccccc3)CC2)c(O)c(CC=C)c1 [PAC-1-I-10] | – | – | – | IC50 [1, 9]: 1.8 ± 0.4 µM; IC50 ([1]; read-out: U937 (IC50 μM), 72 h exposure, sulforhodamine B assay): 1.6 ± 0.4 µM
C=CCc1cccc(/C=N/NC(=O)CN2CCN(Cc3cc(OC)ccc3OC)CC2)c1O [PAC-1-II-5] | 31 ± 3.6 | 36 | 1 ± 0.1 | Solubility in β-Cyclodextran (mg β-CD/μmol Compound) [3]: 15.2 mg β-CD/μmol Compound
C=CCc1cccc(/C=N/NC(=O)CN2CCN(Cc3cccc([N+](=O)[O-])c3)CC2)c1O [PAC-1-II-7] | – | – | 4.6 ± 1 | Solubility in β-Cyclodextran (mg β-CD/μmol Compound) [3]: 4.0 mg β-CD/μmol Compound
C=CCc1cccc(/C=N/NC(=O)CN2CCN(Cc3cccc(C(=O)O)c3)CC2)c1O [PAC-1-II-8] | – | – | 2.3 | Solubility in β-Cyclodextran (mg β-CD/μmol Compound) [3]: 5.6 mg β-CD/μmol Compound
COc1ccc(OC)c(CN2CCN(CC(=O)N/N=C/c3ccccc3O)CC2)c1 [PAC-1-III-1] | – | – | – | IC50 [1, 9]: 12 ± 2 µM
COc1cccc(/C=N/NC(=O)CN2CCN(Cc3cc(OC)c(OC)c(OC)c3)CC2)c1O [PAC-1-III-2] | – | – | 27 ± 9.4 | –
COc1cc(O)c(/C=N/NC(=O)CN2CCN(Cc3cc(OC)c(OC)c(OC)c3)CC2)c(OC)c1 [PAC-1-III-3] | – | – | 38 ± 6.2 | –
COc1ccc(OC)c(CN2CCN(CC(=O)N/N=C/c3c(O)cc(OC)cc3OC)CC2)c1 [PAC-1-III-4] | – | – | 17.5 | –
COc1cccc(/C=N/NC(=O)CN2CCN(Cc3ccccc3CS(=O)(=O)c3ccccc3)CC2)c1O [PAC-1-III-5] | – | – | 8.4 ± 1.6 | –
COc1cc(O)c(/C=N/NC(=O)CN2CCN(Cc3ccccc3CS(=O)(=O)c3ccccc3)CC2)c(OC)c1 [PAC-1-III-6] | – | – | 5.5 ± 1.5 | –
C=CCc1cccc(/C=N/NC(=O)CN2CCN(Cc3ccc(S(N)(=O)=O)cc3)CC2)c1O [S-PAC-1, (E)-4-((4-(2-(2-(3-allyl-2-hydroxybenzylidene)hydrazinyl)-2-oxoethyl)piperazin-1-yl)methyl)benzenesulfonamide] | – | – | – | Solubility in β-Cyclodextran (mg β-CD/μmol Compound) [3]: 3.5 mg β-CD/μmol Compound; S-PAC-1 in the blood at 4 hours post injection [4]: no S-PAC-1 remaining in the blood; concentration at 24 h [5]: ~15 µM; time to steady state from beginning of infusion [6]: ≤ 6 h; enzymatic activity of uncleavable procaspase-3 (D3A) [7]: rapidly (within 5 minutes) enhances the enzymatic activity of the proenzyme
c1ccc(CN(CCN(Cc2ccccn2)Cc2ccccn2)Cc2ccccn2)nc1 [TPEN, N,N,N′,N′-tetrakis (2-pyridylmethyl)ethylenediamine] | – | – | – | Neurotoxicity (mice): severe neurotoxicity in mice at low concentrations and rapid death at higher concentrations
C=CCc1cccc(/C=N/NC(=O)CN2CCN(Cc3cccc(Cn4cc(CNC(=O)Cc5c(C)c6cc(S(=O)(=O)O)c(N)cc6oc5=O)nn4)c3)CC2)c1O [drawing 79] | – | – | – | IC50 ([1]; 72 h exposure, sulforhodamine B assay, read-out: U937 (IC50 μM)): 10.7 µM

More lines, main results first:

activation at 10 µM (caspase-3) [%] | Kd [2] [nM] | SMILES | IC50 [1, 8] [µM] | other results
6.3 | 61 | C=CCc1cccc(/C=N/NC(=O)CN2CCN(Cc3cccc(Cn4cc(CNC(=O)Cc5c(C)c6cc(S(=O)(=O)O)c(N)cc6oc5=O)nn4)c3)CC2)c1O [AF-PAC-1] | 14.8 | activation at 50 µM (caspase-3; 50 μM compound): 20%; colocalization with sites of caspase-3/-7 enzymatic activity (SK-MEL-5 cells): good colocalization
48 ± 3 | 76 | C=CCc1cccc(/C=N/NC(=O)CN2CCN(Cc3ccccn3)CC2)c1O [PAC-1-II-1] | 9.5 ± 1.8 | –
24.2 ± 1.7 | 96 | C=CCc1cccc(/C=N/NC(=O)CN2CCN(Cc3ccc(F)cc3)CC2)c1O [PAC-1-II-4] | 2 ± 0.2 | –
24 ± 3.4 | 41 | C=CCc1cccc(/C=N/NC(=O)CN2CCN(Cc3ccc(OC)cc3)CC2)c1O [PAC-1-II-6] | 2.7 ± 0.8 | Solubility in β-Cyclodextran (mg β-CD/μmol Compound) [3]: 7.1 mg β-CD/μmol Compound
36 ± 3 | 50 | C=CCc1cccc(/C=N/NC(=O)CN2CCC(Cc3ccccc3)CC2)c1O [PAC-1-IV-3] | 2.7 ± 1.1 | –
4.1 ± 1 | – | O=C(CN1CCN(Cc2ccccc2)CC1)NCCc1ccccc1O [PAC-1-IV-6] | > 100 | –
4.4 ± 0.9 | – | O=C(CN1CCN(Cc2ccccc2)CC1)NCc1ccccc1O [PAC-1-IV-7] | > 100 | –

— patent US9643960B2, “Procaspase activating compounds” (The Board of Trustees of the University of Illinois, priority 2009, dated 2017)
